Assay results as given in ChEMBL document CHEMBL4020738, “Antioxidant and anticholinesterase potential of diterpenoid alkaloids from Aconitum heterophyllum” (Bioorg Med Chem, 2017).

Tests used:
[1] = target: Acetylcholinesterase (Electrophorus electricus) (UniProt O42275); test: Inhibition of electric eel AChE at 0.1 mM using acetylthiocholine iodide as substrate preincubated for 15 mins followed by substrate addition by spectrophotometric method relative to control
[2] = Antioxidant activity assessed as inhibition of DPPH free radical after 30 mins; format: functional
Cholinesterase = Cholinesterase (Equus caballus, UniProt P81908); test: Inhibition of horse serum BChE using butyrylcholine chloride as substrate preincubated for 15 mins followed by substrate addition by spectrophotometric method
[3] = target: Cholinesterase (Equus caballus) (UniProt P81908); test: Inhibition of horse serum BChE at 0.1 mM using butyrylcholine chloride as substrate preincubated for 15 mins followed by substrate addition by spectrophotometric method relative to control
[4] = Antioxidant activity assessed as inhibition of DPPH free radical at 100 uM after 30 mins relative to control; format: functional
[5] = Antioxidant activity assessed as inhibition of DPPH free radical at 125 uM after 30 mins relative to control; format: functional
[6] = Antioxidant activity assessed as inhibition of DPPH free radical at 50 uM after 30 mins relative to control; format: functional
Acetylcholinesterase = Acetylcholinesterase (Electrophorus electricus, UniProt O42275); test: Inhibition of electric eel AChE using acetylthiocholine iodide as substrate preincubated for 15 mins followed by substrate addition by spectrophotometric method
[7] = Antioxidant activity assessed as inhibition of DPPH free radical at 75 uM after 30 mins relative to control; format: functional

Chain of Acetylcholinesterase (Electrophorus electricus) (O42275 24-633 limits assumed): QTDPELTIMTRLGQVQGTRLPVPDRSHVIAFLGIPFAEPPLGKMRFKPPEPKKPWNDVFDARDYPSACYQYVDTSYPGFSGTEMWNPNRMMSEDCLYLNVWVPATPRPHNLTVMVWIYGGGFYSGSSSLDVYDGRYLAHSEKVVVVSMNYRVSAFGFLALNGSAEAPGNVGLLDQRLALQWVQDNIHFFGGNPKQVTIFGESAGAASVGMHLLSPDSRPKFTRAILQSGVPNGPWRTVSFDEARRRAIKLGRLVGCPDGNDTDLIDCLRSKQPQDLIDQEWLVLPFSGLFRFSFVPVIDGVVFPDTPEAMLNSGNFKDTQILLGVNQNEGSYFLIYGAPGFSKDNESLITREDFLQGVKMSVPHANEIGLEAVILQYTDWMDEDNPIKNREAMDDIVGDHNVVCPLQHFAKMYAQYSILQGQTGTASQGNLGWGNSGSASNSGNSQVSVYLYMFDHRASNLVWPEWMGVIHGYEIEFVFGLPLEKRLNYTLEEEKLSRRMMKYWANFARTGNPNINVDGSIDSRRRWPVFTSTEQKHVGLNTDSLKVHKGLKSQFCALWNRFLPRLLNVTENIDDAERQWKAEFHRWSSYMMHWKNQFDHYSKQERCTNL
Chain of Acetylcholinesterase (O42275 whole entry): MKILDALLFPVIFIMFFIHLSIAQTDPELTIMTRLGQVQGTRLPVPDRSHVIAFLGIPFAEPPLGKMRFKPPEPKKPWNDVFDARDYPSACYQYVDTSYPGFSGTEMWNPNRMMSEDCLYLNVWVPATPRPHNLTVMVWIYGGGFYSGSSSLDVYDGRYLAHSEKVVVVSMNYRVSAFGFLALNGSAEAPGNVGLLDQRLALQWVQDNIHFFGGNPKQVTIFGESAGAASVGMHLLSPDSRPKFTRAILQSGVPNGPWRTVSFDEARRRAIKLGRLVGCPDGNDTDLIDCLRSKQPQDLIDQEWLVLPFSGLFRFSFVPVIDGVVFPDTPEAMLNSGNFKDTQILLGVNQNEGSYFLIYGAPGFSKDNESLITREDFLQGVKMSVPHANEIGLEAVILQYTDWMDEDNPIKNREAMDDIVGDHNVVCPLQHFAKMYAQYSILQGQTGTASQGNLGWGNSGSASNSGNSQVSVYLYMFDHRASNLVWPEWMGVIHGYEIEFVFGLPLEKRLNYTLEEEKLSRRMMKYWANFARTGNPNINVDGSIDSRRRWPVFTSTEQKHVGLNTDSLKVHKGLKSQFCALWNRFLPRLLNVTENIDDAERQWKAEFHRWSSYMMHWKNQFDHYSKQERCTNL
Chain of Cholinesterase (P81908 whole entry): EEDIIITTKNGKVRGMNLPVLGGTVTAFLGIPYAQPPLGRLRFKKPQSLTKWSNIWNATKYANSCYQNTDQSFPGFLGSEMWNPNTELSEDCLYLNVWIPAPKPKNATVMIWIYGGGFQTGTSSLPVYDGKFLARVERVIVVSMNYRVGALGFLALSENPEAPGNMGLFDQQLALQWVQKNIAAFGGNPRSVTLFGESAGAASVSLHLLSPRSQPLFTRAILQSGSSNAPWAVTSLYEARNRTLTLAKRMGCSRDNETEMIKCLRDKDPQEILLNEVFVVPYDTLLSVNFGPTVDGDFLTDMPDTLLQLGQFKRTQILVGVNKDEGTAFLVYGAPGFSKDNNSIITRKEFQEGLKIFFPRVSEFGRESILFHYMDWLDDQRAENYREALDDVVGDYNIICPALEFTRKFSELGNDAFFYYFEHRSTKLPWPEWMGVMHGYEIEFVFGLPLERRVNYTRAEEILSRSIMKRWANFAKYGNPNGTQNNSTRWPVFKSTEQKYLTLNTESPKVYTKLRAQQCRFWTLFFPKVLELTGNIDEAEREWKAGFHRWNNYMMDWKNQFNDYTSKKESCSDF
Chain of Cholinesterase (Equus caballus) (P81908 whole entry): as above

For `C=C1[C@H]2CC[C@@]3(C(=O)C[C@@H]4[C@@]5(C)CCC[C@@]4(CN(CCO)C5)[C@@H]3C2)[C@@H]1O`, the inhibition [1] was over 50%, the inhibition [2] was “Dose-dependent effect” and the IC50 (Cholinesterase) was 18.1 µM. It also gave an inhibition [3] of over 50%, an inhibition [4] of 40% and an inhibition [5] of 45%. For the same compound, the inhibition [6] was 20%, the IC50 (Acetylcholinesterase) was 14.6 µM and the inhibition [7] was 31.2%.
For `C=C1CC23C[C@H]4[C@@H]5[C@@]6(C)CC[C@H](O)[C@]57C([C@@H]2[C@@H](O)[C@H]1[C@@H](O)[C@@H]37)N4C6`, the inhibition [1] was over 50%, the inhibition [2] was “Dose-dependent effect” and the IC50 (Cholinesterase) was 9.3 µM. It also gave an inhibition [3] of over 50%, an inhibition [4] of 60.3% and an inhibition [5] of 79.6%. The inhibition [6] was 22.5%, the IC50 (Acetylcholinesterase) was 6.5 µM and the inhibition [7] was 27%.
For `C=C1C[C@]23C[C@@H]4[C@@H]5[C@@]6(C)CC(=O)C[C@]57C([C@@H]2[C@@H](O)[C@H]1[C@@H](O)[C@@H]37)N4C6`, the inhibition [1] was over 50%, the inhibition [2] was “Dose-dependent effect” and the IC50 (Cholinesterase) was 15.6 µM. It also gave an inhibition [3] of over 50%, an inhibition [4] of 40% and an inhibition [5] of 65.5%. It also gave an inhibition [6] of 12.1%, an IC50 (Acetylcholinesterase) of 10.1 µM and an inhibition [7] of 32%.
For `O=C1O[C@H]([C@@H](O)CO)C(O)=C1O`, the inhibition [4] was 90%, the inhibition [5] was 96% and the inhibition [6] was 75%. For the same compound, the inhibition [7] was 85%.
With `CCN1C[C@]2(C)CC[C@H](OC)[C@]34C1[C@@](C)([C@@H](OC)[C@H]23)[C@@]1(O)CC[C@H]2C[C@@H]4C1(O)C(=O)O2` the inhibition [1] was over 50%, the inhibition [2] was “Dose-dependent effect” and the IC50 (Cholinesterase) was 8.6 µM. The inhibition [3] was over 50%, the inhibition [4] was 33.2% and the inhibition [5] was 38.4%. For the same compound, the inhibition [6] was 22.2%, the IC50 (Acetylcholinesterase) was 5.4 µM and the inhibition [7] was 28.3%.
With `CCN1C[C@]2(C)CC[C@H](OC)[C@]34C1[C@H]([C@@H](O)[C@H]23)[C@@]1(O)CC[C@H]2C[C@@H]4[C@@H]1C(=O)O2` the inhibition [1] was over 50%, the inhibition [2] was “Dose-dependent effect” and the IC50 (Cholinesterase) was 10.4 µM. The inhibition [3] was over 50%, the inhibition [4] was 47.3% and the inhibition [5] was 52.4%. The inhibition [6] was 19.3%, the IC50 (Acetylcholinesterase) was 6.5 µM and the inhibition [7] was 39.3%.
With `C=C1[C@H]2CC[C@@]3(CC[C@@H]4[C@]5(C)CCC[C@]4(CN4CCO[C@@H]45)[C@@H]3C2)[C@@H]1O` the inhibition [1] was over 50%, the inhibition [2] was “Dose-dependent effect” and the IC50 (Cholinesterase) was 14.7 µM. For the same compound, the inhibition [3] was over 50%, the inhibition [4] was 42.1% and the inhibition [5] was 55.2%. For the same compound, the inhibition [6] was 12.3%, the IC50 (Acetylcholinesterase) was 10.3 µM and the inhibition [7] was 30.1%.
For `C=C1[C@H]2CC[C@@]3(CC[C@H]4[C@]5(CCC[C@]4(C)C4OCCN4C5)[C@@H]3C2)[C@@H]1O` (stereo partly specified), the inhibition [1] was over 50%, the inhibition [2] was “Dose-dependent effect” and the IC50 (Cholinesterase) was 13.1 µM. It also gave an inhibition [3] of over 50%, an inhibition [4] of 49.4% and an inhibition [5] of 60%. For the same compound, the inhibition [6] was 11.8%, the IC50 (Acetylcholinesterase) was 8.4 µM and the inhibition [7] was 23.3%.
In the case of `C=C1[C@H]2C[C@H]3C4N5C[C@]6(C)CCC[C@@]47[C@@H]6[C@@]5(O)CC3([C@@H]1O)[C@@H]7C2`, the inhibition [1] is reported as over 50%, the inhibition [2] is reported as “Dose-dependent effect” and the IC50 (Cholinesterase) is reported as 16.2 µM. It also gave an inhibition [3] of over 50%, an inhibition [4] of 36% and an inhibition [5] of 41.2%. For the same compound, the inhibition [6] was 17%, the IC50 (Acetylcholinesterase) was 12.8 µM and the inhibition [7] was 25%.
